Reference: ChEMBL document CHEMBL5137022, “Antitumor Activity of Rutaecarpine in Human Colorectal Cancer Cells by Suppression of Wnt/β-Catenin Signaling” (J Nat Prod, 2022)
Active and inactive are the calls of the source. No cut-off for these calls is given here.

How the values were obtained:
LS174T [1] = assay: Induction of cell cycle arrest in human LS174T cells assessed as accumulation of cells at S phase at 20 uM measured after 24 hrs by RNase A/propidium iodide staining based flow cytometric analysis (reference value: 14.5 %); type: functional
LS174T [2] = assay: Induction of cell cycle arrest in human LS174T cells assessed as accumulation of cells at sub-G1 phase at 20 uM measured at 24 hrs by RNase A/propidium iodide staining based flow cytometric analysis (reference value: 0.7 %); type: functional
Mus musculus [3] = assay: Downregulation of N-cadherin expression in tumor of BALB/c mouse xenografted with human LS174T cells at 10 to 30 mg/kg, ip administered 3 times per week for 21 days by Western blot analysis; type: functional, organism-based; conditions: dose 10-30 mg/kg, time 21.0 day
Mus musculus [4] = assay: Downregulation of Ki-67 expression in tumor of BALB/c mouse xenografted with human LS174T cells at 10 to 30 mg/kg, ip administered 3 times per week for 21 days by immunohistochemical based analysis; type: functional, organism-based; conditions: dose 10-30 mg/kg, time 21.0 day
LS174T [5] = assay: Induction of cell cycle arrest in human LS174T cells assessed as accumulation of cells […] at 20 uM measured after 24 hrs by RNase A/propidium iodide staining based flow cytometric analysis (reference value: 1.3 %); type: functional
LS174T [6] = assay: Induction of cell cycle arrest in human LS174T cells assessed as accumulation of cells at G0/G1 phase at 20 uM measured at 48 hrs by RNase A/propidium iodide staining based flow cytometric analysis (reference value: 74.8 %); type: functional
LS174T [7] = assay: Induction of apoptosis in human LS174T cells assessed as total cell death at 20 uM measured after 48 hrs by AnnexinV-FITC/PI staining based flowcytometry analysis relative to control; type: functional
LS174T [8] = assay: Induction of cell cycle arrest in human LS174T cells assessed as accumulation of cells at sub-G1 phase at 10 uM measured after 24 hrs by RNase A/propidium iodide staining based flow cytometric analysis (reference value: 1.3 %); type: functional
LS174T [9] = assay: Induction of cell cycle arrest in human LS174T cells assessed as accumulation of cells at G0/G1 phase at 20 uM measured after 24 hrs by RNase A/propidium iodide staining based flow cytometric analysis (reference value: 71.7 %); type: functional
LS174T [10] = assay: Induction of cell cycle arrest in human LS174T cells assessed as accumulation of cells at S phase at 20 uM measured at 48 hrs by RNase A/propidium iodide staining based flow cytometric analysis (reference value: 11.4 %); type: functional
Mus musculus [11] = assay: Downregulation of c-myc protein expression in tumor of BALB/c mouse xenografted with human LS174T cells at 10 to 30 mg/kg, ip administered 3 times per week for 21 days by Western blot analysis; type: functional, organism-based; conditions: dose 10-30 mg/kg, time 21.0 day
LS174T [12] = assay: Downregulation of snail expression in human LS174T cells at up to 8 uM incubated for 24 hrs by Western blot analysis; type: functional, cell-based
CCD-18Co = assay: Antiproliferative activity against human CCD-18Co cells assessed as reduction in cell viability measured after 72 hrs by SRB assay; type: functional, cell-based
LS174T [13] = assay: Induction of apoptosis in human LS174T cells assessed as total cell death at 30 uM measured after 48 hrs by AnnexinV-FITC/PI staining based flowcytometry analysis relative to control; type: functional
LS174T [14] = assay: Induction of apoptosis in human LS174T cells assessed as upregulation of cleaved PARP expression measured after 48 hrs by Western blot analysis; type: functional, cell-based; conditions: dose 20-40 µM, DDE = dose-dependent effect
LS174T [15] = assay: Induction of cell cycle arrest in human LS174T cells assessed as accumulation of cells at G0/G1 phase at 20 uM measured at 36 hrs by RNase A/propidium iodide staining based flow cytometric analysis (reference value: 74.8 %); type: functional
[16] = Toxicity in BALB/c nude mouse xenografted with human LS174T cells assessed as effect on body weight at 30 mg/kg, IP administered 3 times per week for 21 days; type: organism-based; conditions: in vivo, 504 h, time 21 day
LS174T [17] = assay: Induction of cell cycle arrest in human LS174T cells assessed as downregulation of CDK6 expression measured after 24 hrs by Western blot analysis; type: functional, cell-based; conditions: dose 5-20 µM, DDE = dose-dependent effect
LS174T [18] = assay: Inhibition of cell migration in human LS174T cells assessed as reduction in wound closure incubated for 24 hrs by wound healing assay; type: functional, cell-based; conditions: dose 2-8 µM, DDE = dose-dependent effect
LS174T [19] = assay: Induction of cell cycle arrest in human LS174T cells assessed as accumulation of cells at G2/M phase at 20 uM measured after 24 hrs by RNase A/propidium iodide staining based flow cytometric analysis (reference value: 12.2 %); type: functional
LS174T [20] = assay: Induction of cell cycle arrest in human LS174T cells assessed as accumulation of cells at S phase at 20 uM measured at 12 hrs by RNase A/propidium iodide staining based flow cytometric analysis (reference value: 11.4 %); type: functional
LS174T [21] = assay: Induction of cell cycle arrest in human LS174T cells assessed as downregulation of CDK2 expression measured after 24 hrs by Western blot analysis; type: functional, cell-based; conditions: dose 5-20 µM, DDE = dose-dependent effect
LS174T [22] = assay: Inhibition of Wnt/beta-catenin transactivation signalling in human LS174T cells transfected with renilla luciferase and TOPFlash reporter gene incubated for 24 hrs by dual-luciferase assay; type: cell-based; conditions: dose 2.5-20 µM, DDE = dose-dependent effect
LS174T [23] = assay: Induction of apoptosis in human LS174T cells assessed as increase in late apoptotic cells at 20 to 40 uM measured after 48 hrs by AnnexinV-FITC/PI staining based flowcytometry analysis; type: functional, cell-based; conditions: dose 20-40 µM
LS174T [24] = assay: Antitumor activity against human LS174T cells xenografted in BALB/c nude mouse assessed as reduction in tumor weight at 10 mg/kg, ip administered 3 times per week for 21 days by electronic caliper method; type: functional; design: scale not given: the % may be the effect or the level left; conditions: time 21 day
LS174T [25] = assay: Antitumor activity against human LS174T cells xenografted in BALB/c nude mouse assessed as reduction in tumor weight at 30 mg/kg, ip administered 3 times per week for 21 days by electronic caliper method; type: functional; design: scale not given: the % may be the effect or the level left; conditions: time 21 day
LS174T [26] = assay: Induction of cell cycle arrest in human LS174T cells assessed as accumulation of cells at G0/G1 phase at 20 uM measured at 12 hrs by RNase A/propidium iodide staining based flow cytometric analysis (reference value: 74.8 %); type: functional
LS174T [27] = assay: Induction of cell cycle arrest in human LS174T cells assessed as downregulation of CDK4 expression measured after 24 hrs by Western blot analysis; type: functional, cell-based; conditions: dose 5-20 µM, DDE = dose-dependent effect
LS174T [28] = assay: Induction of cell cycle arrest in human LS174T cells assessed as accumulation of cells at G2/M phase at 20 uM measured at 12 hrs by RNase A/propidium iodide staining based flow cytometric analysis (reference value: 12.9 %); type: functional
LS174T [29] = assay: Induction of cell cycle arrest in human LS174T cells assessed as accumulation of cells at G0/G1 phase at 20 uM measured at 24 hrs by RNase A/propidium iodide staining based flow cytometric analysis (reference value: 74.8 %); type: functional
[30] = Toxicity in BALB/c nude mouse xenografted with human LS174T cells assessed as effect on body weight at 10 to 30 mg/kg, ip administered 3 times per week for 21 days; type: organism-based; conditions: in vivo, 504 h, dose 10-30 mg/kg, time 21 day

For `O=c1c2ccccc2nc2n1CCc1c-2[nH]c2ccccc12` [RUTAECARPINE], the Activity (LS174T [1]) was 4.1%, the Activity (LS174T [2]) was 2.7% and the Activity (Mus musculus [3]) was “Active”. For the same compound, the Activity (Mus musculus [4]) was “Active”, the Activity (LS174T [5]) was 1.5% and the Activity (LS174T [6]) was 76.9%. It also gave an Activity (LS174T [7]) of 24.7%, an Activity (LS174T [8]) of 1.3% and an Activity (LS174T [9]) of 87.3%. For the same compound, the Activity (LS174T [10]) was 4.7%, the Activity (Mus musculus [11]) was “Active” and the Activity (LS174T [12]) was “Active”. The IC50 (CCD-18Co) was greater than 50 µM, the Activity (LS174T [13]) was 65.7% and the Activity (LS174T [14]) was “Dde”. The Activity (LS174T [15]) was 87.4%, the Activity [16] was “Non-Toxic” and the Activity (LS174T [17]) was “Dde”. For the same compound, the inhibition (LS174T [18]) was “Dde”, the Activity (LS174T [19]) was 7% and the Activity (LS174T [20]) was 2.4%. For the same compound, the Activity (LS174T [21]) was “Dde”, the inhibition (LS174T [22]) was “Dde” and the Activity (LS174T [23]) was “Active”. The Activity (LS174T [24]) was 68.3%, the Activity (LS174T [25]) was 41.5% and the Activity (LS174T [26]) was 80.3%. The Activity (LS174T [27]) was “Dde”, the Activity (LS174T [28]) was 16.8% and the Activity (LS174T [29]) was 89.5%. The Activity [30] was “Non-Toxic”.
